From article PMC11982978, “Cancer hotspot mutations rewire ERK2 specificity by selective exclusion of docking interactions” (The Journal of Biological Chemistry, 2025)
* marks the point of attachment. Biotin = O=C1N[C@H]2[C@H](CS[C@H]2CCCCC(=O)*)N1

System: His6-ERK2 WT
Assay: Radiolabel kinase assay with competing D-peptide
Type: biochemical
Conditions: 10 μM KMT2C D-peptide, WT without peptide = 100.0; for ELK1 WT phosphorylation, Normalized: 0.5 μM GST-ELK1 WT; for ELK1 WT phosphorylation, Normalized / ELK1 ΔD phosphorylation, Normalized: 10 nM ERK2 WT; for ELK1 ΔD phosphorylation, Normalized: 0.5 μM GST-ELK1 ΔD; for GEF-H1 phosphorylation, Normalized: 0.5 μM His6-GEF-H1, 10 nM ERK2 WT
Source text: Based on our structural and mutational analysis, we hypothesized that ERK2 CD site mutants should not bind or efficiently phosphorylate validated ERK2 substrates containing an I/L-x-x-R-R D-site motif. We previously reported that while ISG20 interacts physically with ERK2 in cells, it is not an ERK2 substrate in vitro ([15]). […] We previously reported that disruption of the GEF-H1 docking motif reduced its extent of co-immunoprecipitation with ERK2 ([15]). Accordingly, we investigated whether cancer-associated ERK2 mutants were impaired in phosphorylating GEF-H1. […] The level of phosphorylation by CD site mutants was similar to that of WT ERK2 when assayed in the presence of excess competing D-peptide to block docking interactions.
Radiolabel kinase assays were performed as described previously by incubating 0.5 μM MAPK substrate (His6-GEF-H1, GST-ELK1^WT or GST-ELK1^ΔD), 10 nM His6-ERK2 (WT, R133K, D319N or E320K) and 10 μM inhibitor peptide KMT2C where indicated (biotin-RKRSKPKLKLKIIN-amide, Tufts University Core Facility) in reaction buffer (20 mM HEPES, 10 mM MgCl2, 1 mM DTT, 1% DMSO, 10 μM cold ATP, and 0.038 μCi/μl [γ-^32P] ATP) at 30 °C for 2 min. Reactions were quenched by the addition of 4x SDS-PAGE loading buffer and heated to 95 °C for 5 min before SDS-PAGE fractionation. Gels were stained with Coomassie blue, destained, dried, and exposed to a phosphor screen. Radiolabel incorporation was measured with Molecular Imager FX phosphorimager (Bio-Rad), and ^32P signal density (CNT/mm^2) was quantified using QuantityOne Software (Bio-Rad version 11.0.5). All signals were normalized to the vehicle control condition. Raw quantified data are provided in Dataset S3.

ELK1 WT phosphorylation, Normalized (Replicate 1): 66.2
ELK1 WT phosphorylation, Normalized (Replicate 2): 52.7
ELK1 WT phosphorylation, Normalized (Replicate 3): 42.6
ELK1 ΔD phosphorylation, Normalized (Replicate 1): 107.4
ELK1 ΔD phosphorylation, Normalized (Replicate 2): 80.5
ELK1 ΔD phosphorylation, Normalized (Replicate 3): 85.4
GEF-H1 phosphorylation, Normalized (30 °C 2 min, Replicate 1): 23.5
GEF-H1 phosphorylation, Normalized (Replicate 2): 37.1
GEF-H1 phosphorylation, Normalized (Replicate 3): 54.2
Substance: Biotin-RKRSKPKLKLKIIN-NH2 [D-pep]
